Drawing on patent publication US7169778B2, “Pteridinones as kinase inhibitors” (Warner-Lambert Company, priority 1999, dated 2007), this text covers IC50, melting point and inhibition for 16 molecules.

Data set [1] has as its target C-src kinase (Homo sapiens, UniProt P12931). As to the kind of experiment: C-src kinase assay. The format is biochemical. On the procedure: C-src kinase was purified from baculovirus infected insect cell lysates using an antipeptide monoclonal antibody directed against the N-terminal amino acids (amino acids 2–17) of c-src. The antibody, covalently linked to 0.65 μm latex beads, was added to a suspension of insect cell lysis buffer comprised of 150 mM NaCl, 50 mM Tris pH 7.5, 1 mM DTT, 1% NP-40, 2 mM EGTA, 1 mM sodium vanadate, 1 mM PMSF, 1 μg/mL each of leupeptin, pepstatin, and aprotinin. Insect cell lysate containing c-src protein was incubated with these beads for 3 to 4 hours at 4° C. with rotation. At the end of the lysate incubation, the beads were rinsed three times in lysis buffer, resuspended in lysis buffer containing 10% glycerol, and frozen. These latex beads were thawed, rinsed three times in assay buffer (40 mM Tris, pH 7.5, 5 mM mgCl2) and suspended in the same buffer. In a Millipore 96-well plate with a 0.65 μm polyvinylidine membrane bottom were added the reaction components: 10 μL C-src beads, 10 μL of 2.5 mg/mL poly GluTyr substrate, 5 μM ATP containing 0.2 μCi labeled ^32P-ATP, 5 μL DMSO containing inhibitors or as a solvent control, and buffer to make the final volume 125 μL. The reaction was started at room temperature by addition of the ATP and quenched 10 minutes later by the addition of 125 μL of 30% TCA, 0.1 M sodium pyrophosphate for 5 minutes on ice. The plate was then filtered and the wells washed with two […] aliquots of 15% TCA, 0.1 M pyrophosphate. The filters were then punched, counted in a liquid scintillation counter, and the data examined for inhibitory activity in comparison to a known inhibitor such as erbstatin. The method is also described in J. Med. Chem., 1994;37:598–609.

Data set [2] addresses N-terminal truncated Wee 1 (Homo sapiens, UniProt P30291). In words: Wee 1 OY kinase assay. Format: biochemical. As to conditions: read-out: WEE1OY IC50. How it is done: These kinase assays are carried out on 96-well filter plates (Millpore, Cat. MADPN0B50) in 50 μL kinase assay buffer (50 mM Tris, pH 8.0, 10 mM NaCl, 10 mM MgCl2, 10 μM ATP with 0.25 μCi [r-32P]ATP, 1 mM DTT) with 0.1 μg purified N-terminal truncated Wee 1 and 6 μg poly(Orn, Tyr)4:1 (Sigma, P4534). The assay is started by adding ATP and incubating at room temperature for 20 minutes with shaking. The reactions are terminated by adding 50 μL ice-cold 20% TCA (trichloracetic acid) with 0.1 M sodium pyrophosphate and shaking the resultant mixture for 1 minute. The plate is then incubated at 4° C. for 1 hour to allow protein to precipitate. These plates are then washed 5 times with 200 μL ice-cold 10% TCA and with 0.1 M sodium pyrophosphate per wash. Twenty-five microliters scintillation liquid is then added to each well, and the plate is counted in Wallac's MicroBeta counter 1450.

The target of data set [3] is T1, human FGF-1 (flg) receptor tyrosine kinase (Homo sapiens, UniProt P11362).
T1 construct: amplify a fragment of DNA that codes for the intracellular tyrosine kinase domain; made in house; host or cells: SF9 insect cells (baculovirus)
T1 sequence (P11362 478-767 limits assumed): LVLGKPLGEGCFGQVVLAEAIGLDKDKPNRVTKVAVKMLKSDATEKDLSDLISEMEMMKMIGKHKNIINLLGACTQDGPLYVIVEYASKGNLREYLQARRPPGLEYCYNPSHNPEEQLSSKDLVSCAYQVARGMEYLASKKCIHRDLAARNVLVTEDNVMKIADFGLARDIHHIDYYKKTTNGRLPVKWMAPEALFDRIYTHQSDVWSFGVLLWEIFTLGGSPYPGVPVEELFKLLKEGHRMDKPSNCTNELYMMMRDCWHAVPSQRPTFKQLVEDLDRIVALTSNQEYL
In words: FGF receptor tyrosine kinase assay. The format is biochemical. Particulars: for inhibition at 5 µM: @ 5 (unit μm), read-out: FGF % @ concentration. The text has this: (§1) Full-length cDNAs for the mouse PDGF-β and human FGF-1 (flg) receptor tyrosine kinases were obtained from J. Escobedo and prepared as described in J. Biol. Chem., 1991;262:1482–1487. PCR primers were designed to amplify a fragment of DNA that codes for the intracellular tyrosine kinase domain. The fragment was inserted into a baculovirus vector, cotransfected with AcMNPV DNA, and the recombinant virus isolated. SF9 insect cells were infected with the virus to overexpress the protein, and the cell lysate was used for the assay. Assays were performed in 96-well plates (100 μL/incubation/well), and conditions were optimized to measure the incorporation of ^32P from γ^32P-ATP into a glutamate-tyrosine co-polymer substrate. Briefly, to each well was added 82.5 μL of incubation buffer containing 25 mM Hepes (pH 7.0), 150 mM NaCl, 0.1% Triton X-100, 0.2 mM PMSF, 0.2 mM Na3VO4, 10 mM MnCl2, and 750 μg/mL of Poly (4:1) glutamate-tyrosine followed by 2.5 μL of inhibitor and 5 μL of enzyme lysate (7.5 μg/μL FGF-TK or 6.0 μg/μL PDGF-TK) to initiate the reaction. Following a 10 minute incubation at 25° C., […] of γ^32P-ATP (0.4 μCi plus 50 μM ATP) was added to each well, and samples were incubated for an additional 10 minutes at 25° C. The reaction was terminated by the addition of 100 μL of 30% TCA containing 20 mM sodium pyrophosphate and precipitation of material onto glass fiber mats (Wallac). Filters were washed three times with 15% TCA containing 100 mM sodium pyrophosphate, and the radioactivity retained on the filters counted in a Wallac 1250 Betaplate reader. Nonspecific activity was defined as radioactivity retained on the filters following incubation of samples with buffer alone (no enzyme). Specific enzymatic activity (enzyme plus buffer) was defined as total activity minus nonspecific activity. The concentration of a compound that inhibited specific activity by 50% (IC50) was determined based on the inhibition curve.

For data set [4], the target named is T2, mouse PDGF-β receptor tyrosine kinase (Mus musculus, UniProt P05622).
T2 construct: amplify a fragment of DNA that codes for the intracellular tyrosine kinase domain; made in house; host or cells: SF9 insect cells (baculovirus)
T2 sequence (P05622 599-961 limits assumed): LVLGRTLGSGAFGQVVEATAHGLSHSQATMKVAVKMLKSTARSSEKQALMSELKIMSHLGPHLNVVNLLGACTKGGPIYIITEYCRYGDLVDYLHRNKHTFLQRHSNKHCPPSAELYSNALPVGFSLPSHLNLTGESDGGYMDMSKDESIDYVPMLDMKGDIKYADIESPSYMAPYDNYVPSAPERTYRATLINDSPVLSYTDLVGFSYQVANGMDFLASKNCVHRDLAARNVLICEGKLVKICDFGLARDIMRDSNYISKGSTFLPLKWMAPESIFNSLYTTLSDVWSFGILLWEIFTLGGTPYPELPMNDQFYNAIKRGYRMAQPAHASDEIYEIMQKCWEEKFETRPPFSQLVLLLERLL
As to the kind of experiment: PDGF receptor tyrosine kinase assay. Format: biochemical.
Description: as §1

Sequence of N-terminal truncated Wee 1 (P30291 299-569 limits assumed): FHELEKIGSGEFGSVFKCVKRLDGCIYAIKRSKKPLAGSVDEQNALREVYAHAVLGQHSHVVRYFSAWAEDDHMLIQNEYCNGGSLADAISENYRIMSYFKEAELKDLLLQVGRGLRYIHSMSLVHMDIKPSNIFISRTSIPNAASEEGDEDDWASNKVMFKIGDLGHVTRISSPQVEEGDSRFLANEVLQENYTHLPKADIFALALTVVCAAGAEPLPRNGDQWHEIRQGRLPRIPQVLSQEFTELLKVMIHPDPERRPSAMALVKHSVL
Sequence of C-src kinase (P12931 whole entry, the tested form may be a part): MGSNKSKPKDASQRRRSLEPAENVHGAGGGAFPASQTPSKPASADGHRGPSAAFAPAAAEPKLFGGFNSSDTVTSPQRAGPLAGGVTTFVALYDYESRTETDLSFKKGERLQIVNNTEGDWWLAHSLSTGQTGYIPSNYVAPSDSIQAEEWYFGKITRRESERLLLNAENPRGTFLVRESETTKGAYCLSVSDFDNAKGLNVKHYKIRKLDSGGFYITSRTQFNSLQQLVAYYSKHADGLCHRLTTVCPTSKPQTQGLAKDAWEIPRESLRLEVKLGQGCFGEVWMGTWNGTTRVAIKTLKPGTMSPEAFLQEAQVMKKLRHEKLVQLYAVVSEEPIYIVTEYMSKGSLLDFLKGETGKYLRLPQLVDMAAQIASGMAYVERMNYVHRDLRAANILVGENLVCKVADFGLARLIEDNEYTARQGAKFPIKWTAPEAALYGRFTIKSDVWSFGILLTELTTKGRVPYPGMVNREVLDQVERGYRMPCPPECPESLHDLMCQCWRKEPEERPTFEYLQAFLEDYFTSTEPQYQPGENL

One may read the IC50 as the concentration at which inhibition is half-maximal. For orientation: melting point means the temperature of the solid-liquid transition. Turning to `CCN(CC)CCOc1ccc(Nc2ncc3nc(-c4c(Cl)cncc4Cl)c(=O)n(C)c3n2)cc1` [Compound 20, 6-(3,5-Dichloropyridin-4-yl)-8-methyl-2-[[4-[2-(diethylamino)ethoxy]-phenyl]amino]-8H-pteridin-7-one], the melting point lay in the range of 179 to 180.5 °C. The molecule further registered an IC50 in data set [1] of 0.12 µM. Also, in data set [2], the IC50 is 7.07 µM.
For the molecule `CCn1c(=O)c(-c2cc(OC)cc(OC)c2)nc2cnc(Nc3ccncc3)nc21` [Compound 15, 6-(3,5-Dimethoxyphenyl)-8-ethyl-2-[(pyridin-4-yl)amino]-8H-pteridin-7-one], the melting point lay in the range of 245 to 246.5 °C.
For `Cn1c(=O)c(-c2ccccc2)nc2cnc(Nc3ccc(N4CCOCC4)cc3)nc21` [Compound 1], the melting point was 302 to 304.5 °C. The molecule also came in with a 50% inhibitory concentration (IC50) in data set [1] above 50 µM. The same molecule returned a 50% inhibitory concentration (IC50) in data set [3] above 50 µM. Also, in data set [4], the IC50 was above 50 µM. Moreover, the IC50 in data set [2] was above 50 µM.
For `Cn1c(=O)c(-c2c(Cl)cncc2Cl)nc2cnc(Nc3ccc(N4CCOCC4)cc3)nc21` [Compound 12, 6-(3,5-Dichloropyridin-4-yl)-8-methyl-2-[[4-(morpholin-4-yl)phenyl]amino]-8H-pteridin-7-one], the melting point lay within 243 to 245 °C. Moreover, in data set [1], the half-inhibitory concentration (IC50) is 0.38 µM. In data set [4], this molecule returned an IC50 of 25.4 µM. Also, the IC50 in data set [2] came to 1.01 µM.
The molecule `CN1CCN(c2ccc(Nc3ncc4[nH]c(=O)c(=O)n(C5CCCC5)c4n3)cc2)CC1` [Compound 24, 8-Cyclopentyl-2-[[4-(4-methylpiperazin-1-yl)phenyl]amino]-5H,8H-pteridine-6,7-dione] gave a melting point of 266 to 270 °C. This molecule registered an IC50 in data set [1] of 4.35 µM.
As to `CCN(CC)CCOc1ccc(Nc2ncc3nc(-c4ccccc4)c(=O)n(C)c3n2)cc1` [Compound 3, 2-[[4-[2-(Diethylamino)ethoxy]phenyl]amino]-8-methyl-6-phenyl-8H-pteridin-7-one], the melting point fell in the range of 162 to 165 °C. In data set [1], this molecule registered an IC50 of 1.53 µM. Besides, the inhibition at 5 µM in data set [3] turned out to be 54%. This molecule registered an IC50 in data set [4] of 7.55 µM. Moreover, in data set [2], the 50% inhibitory concentration (IC50) was above 50 µM.
For `CCN(CC)CCOc1ccc(Nc2ncc3nc(-c4c(Cl)c(OC)nc(OC)c4Cl)c(=O)n(C)c3n2)cc1` [Compound 21, 6-(3,5-Dichloro-2,6-dimethoxypyridin-4-yl)-8-methyl-2-[[4-[2-(diethylamino)ethoxy]phenyl]amino]-8H-pteridin-7-one], the figures for the half-maximal inhibitory concentration (IC50) in data set [1], in data set [3] and in data set [2] were 6.8 µM, 0.054 µM and above 50 µM, respectively.
For the molecule `CCN(CC)CCOc1ccc(Nc2ncc3nc(-c4c(Cl)cccc4Cl)c(=O)n(C)c3n2)cc1` [Compound 4, 6-(2,6Dichlorophenyl)-2-[[4-[2-(diethylamino)ethoxy]phenyl]amino]-8-methyl-8H-pteridin-7-one], the melting point lay within 156 to 161 °C. Also, the IC50 in data set [1] is 0.015 µM. Further, the inhibition at 5 µM in data set [3] is 69%. Besides, the IC50 in data set [4] is 0.7 µM. In data set [2], the IC50 stood at 0.861 µM.
The molecule `CCN(CC)C(=O)c1ccc(Nc2ncc3nc(-c4c(Cl)cccc4Cl)c(=O)n(C)c3n2)cc1` [Compound 6, 6-(2,6-Dichlorophenyl)-2-[[4-(diethylaminocarbonyl)phenyl]amino]-8-methyl-8H-pteridin-7-one] showed a melting point of 239 to 241 °C. Also, in data set [1], it took 0.29 µM to reach half-maximal inhibition (IC50). In addition, the 50% inhibitory concentration (IC50) in data set [3] was found to be 0.05 µM. Moreover, in data set [4], the IC50 worked out at 3.13 µM. The 50% inhibitory concentration (IC50) in data set [2] came to 0.987 µM.
`COc1nc(OC)c(Cl)c(-c2nc3cnc(Nc4ccc(N5CCOCC5)cc4)nc3n(C)c2=O)c1Cl` [Compound 18, 6-(3,5-Dichloro-2,6-dimethoxypyridin-4-yl)-8-methyl-2-[[4-(morpholin-4-yl)phenyl]amino]-8H-pteridin-7-one] came in with a melting point of 275 to 276 °C. In data set [1], this molecule gave a half-inhibitory concentration (IC50) of 20 µM. The IC50 in data set [3] amounted to 0.23 µM. In addition, the half-inhibitory concentration (IC50) in data set [2] was above 50 µM.
For `CCN(CC)CCOc1ccc(Nc2ncc3nc(-c4cc(OC)cc(OC)c4)c(=O)n(CC)c3n2)cc1` [Compound 14, 6-(3,5-Dimethoxyphenyl)-8-ethyl-2-[[4-[2-(diethylamino)ethoxyl]-phenyl]amino]-8H-pteridin-7-one], the melting point was in the range of 154 to 155 °C. In addition, in data set [3], half-maximal inhibition (IC50) was put at 30 µM.
Regarding `CCN(CC)C(=O)c1ccc(Nc2ncc3nc(-c4c(Cl)cncc4Cl)c(=O)n(C)c3n2)cc1` [Compound 13, 6-(3,5-Dichloropyridin-4yl)-2-[[4-(diethylaminocarbonyl)phenyl]-amino]-8-methyl-8H-pteridin-7-one], the melting point lay in the range of 230 to 231 °C. The IC50 in data set [1] came out at 0.5 µM. The inhibition at 5 µM in data set [3] came to 17%. The IC50 in data set [2] was found to be 4.49 µM.
Turning to `CCN(CC)C(=O)c1ccc(Nc2ncc3nc(-c4c(Cl)c(OC)nc(OC)c4Cl)c(=O)n(C)c3n2)cc1` [Compound 22, 6-(3,5Dichloro-2,6-dimethoxypyridin-4-yl)-2-[[4-(diethylaminocarbonyl)phenyl]amino]-8-methyl-8H-pteridin-7-one], the melting point was 274 to 276 °C. Besides, it took 47 µM to reach half-maximal inhibition in data set [1] (IC50). Moreover, in data set [3], the IC50 came to 0.16 µM. In addition, the concentration for half-maximal inhibition (IC50) in data set [2] was above 50 µM.
`CCN(CC)C(=O)c1ccc(Nc2ncc3nc(-c4ccccc4)c(=O)n(C)c3n2)cc1` [Compound 5, 2-[[4-(Diethylaminocarbonyl)phenyl]amino]-8-methyl-6-phenyl-8H-pteridin-7-one] had a melting point of 250 to 252 °C. The molecule also yielded an IC50 in data set [1] above 50 µM. In data set [3], the inhibition at 5 µM is 38%. In data set [4], this molecule had an IC50 above 50 µM. For the same molecule, the IC50 in data set [2] was above 50 µM.
The molecule `Cn1c(=O)c(-c2c(Br)cncc2Br)nc2cnc(Nc3ccc(N4CCOCC4)cc3)nc21` [Compound 19, 6-(3,5-Dibromopyridin-4-yl)-8-methyl-2-[[4-(morpholin-4-yl)phenyl]amino]-8H-pteridin-7-one] had a melting point of 204 to 206 °C. Further, half-maximal inhibition in data set [1] (IC50) was put at 1.45 µM. Also, the 50% inhibitory concentration (IC50) in data set [2] amounted to 7.4 µM.
Consider `O=c1[nH]c2cnc(Nc3ccc(N4CCOCC4)cc3)nc2n(C2CCCC2)c1=O` [Compound 23, 8-Cyclopentyl-2-[[4-(morpholin-4-yl]phenyl]amino]-5H,8H-pteridine-6,7-dione], for which the melting point lay in the range of 283 to 286 °C.
